Test system: SW480
Test: drug sensitivity score (DSS, integrated dose-response area); higher = more sensitive (stronger viability reduction); extreme values may be limits of the assay
In short: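 Viability of induced SW480 cells carrying control or SND1-targeting shRNA was read by CellTiter-Glo 72 h after plating at 1000 cells per well onto 384-well plates holding 525 small-molecule inhibitors at five concentrations. Induction used 0.1 µg/mL doxycycline for 7 days. Each drug sensitivity score integrates the area under a fitted non-linear dose–response model.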

[1] = shRNA: SND1 shRNA1 (SND1 silenced)
[2] = shRNA: control shRNA (non-targeting)
[3] = shRNA: SND1 shRNA2 (SND1 silenced)

For `C[C@@H]1CN(CC(=O)Nc2ccc3c(c2)Cc2cccc(-c4cc(=O)cc(N5CCOCC5)o4)c2S3)C[C@H](C)O1`, the drug sensitivity score [1] was 6.4 DSS and the drug sensitivity score [2] was 5.3 DSS.
`COc1ccc(C[C@H](NC(=O)[C@H](C)NC(=O)CN2CCOCC2)C(=O)N[C@@H](Cc2ccccc2)C(=O)C2(C)CO2)cc1` (stereo in doubt) [ONX-0914] gave a drug sensitivity score [1] of 12.9 DSS, a drug sensitivity score [3] of 12.6 DSS and a drug sensitivity score [2] of 15.4 DSS.
Compound `Cn1cc(C[C@@H](N)C(=O)O)c2ccccc21` [1-methyl-D-tryptophan] has a drug sensitivity score [1] of 0 DSS and a drug sensitivity score [2] of 0 DSS.
With `COc1cc2c(cc1O)CC[C@@H]1[C@@H]2CC[C@]2(C)[C@@H](O)CC[C@@H]12` [2-methoxyestradiol] the drug sensitivity score [1] was 5.5 DSS, the drug sensitivity score [3] was 6.6 DSS and the drug sensitivity score [2] was 6.1 DSS.
`CC/C(=C(\c1ccc(O)cc1)c1ccc(OCCN(C)C)cc1)c1ccccc1` [4-hydroxytamoxifen] was tested, and the drug sensitivity score [1] was 6.8 DSS, the drug sensitivity score [3] was 5.4 DSS and the drug sensitivity score [2] was 8.7 DSS.
`Nc1ncnc2c1nc(N)n2[C@@H]1O[C@H](CO)[C@@H](O)[C@H]1O` [8-amino-adenosine] gave a drug sensitivity score [1] of 23.6 DSS, a drug sensitivity score [3] of 24.3 DSS and a drug sensitivity score [2] of 22.2 DSS.
`Nc1ncnc2c1nc(Cl)n2[C@@H]1O[C@H](CO)[C@@H](O)[C@H]1O` [8-chloro-adenosine] showed a drug sensitivity score [1] of 13.5 DSS, a drug sensitivity score [3] of 13.3 DSS and a drug sensitivity score [2] of 11.3 DSS.
Work on `CCCCC/C=C/C=C1/C(=O)C=C[C@@H]1C/C=C\CCCC(=O)O` [15D-PGJ2] yielded a drug sensitivity score [1] of 1.7 DSS, a drug sensitivity score [3] of 0 DSS and a drug sensitivity score [2] of 0 DSS.
Work on `COc1cc(O)c2c(c1)/C=C/C[C@H](O)[C@H](O)C(=O)/C=C\C[C@H](C)OC2=O` [(5Z)-7-Oxozeaenol] yielded a drug sensitivity score [1] of 3.7 DSS, a drug sensitivity score [3] of 2.6 DSS and a drug sensitivity score [2] of 3.6 DSS.
`COc1ccc(S(=O)(=O)Nc2cccnc2Nc2ccc(O)cc2)cc1` [ABT-751] gave a drug sensitivity score [1] of 9 DSS, a drug sensitivity score [3] of 9.1 DSS and a drug sensitivity score [2] of 9.5 DSS.
Work on `Cc1ccccc1C(C(=O)NC1CCCCC1)N(C(=O)Cn1ccnc1C)c1cccc(F)c1` (centres undefined) [AGI-5198] yielded a drug sensitivity score [1] of 0 DSS and a drug sensitivity score [2] of 3.6 DSS.
Compound `O=C(Nc1cccc(C(F)(F)F)c1)Nc1cc(S(=O)(=O)NC2CC2)ccc1-c1ccsc1` [AGI-6780] has a drug sensitivity score [1] of 0.2 DSS and a drug sensitivity score [2] of 0.5 DSS.
`COc1ccc2c(OCc3nnc4ccc(-c5ccccc5)nn34)ccnc2c1` [AMG-208] gave a drug sensitivity score [1] of 0 DSS, a drug sensitivity score [3] of 2 DSS and a drug sensitivity score [2] of 0.5 DSS.
Work on `CC(C)[C@@H](CS(=O)(=O)C(C)C)N1C(=O)[C@@](C)(CC(=O)O)C[C@H](c2cccc(Cl)c2)[C@H]1c1ccc(Cl)cc1` [AMG-232] yielded a drug sensitivity score [1] of 0 DSS, a drug sensitivity score [3] of 0 DSS and a drug sensitivity score [2] of 0 DSS.
`Cc1csc(-c2nnc(Nc3ccc(Oc4ncccc4-c4ccnc(N)n4)cc3)c3ccccc23)c1` [AMG-900] gave a drug sensitivity score [1] of 5 DSS, a drug sensitivity score [3] of 0 DSS and a drug sensitivity score [2] of 1.7 DSS.
For `CC1CCC(n2c3cnccc3c3cnc(Nc4ccc5c(n4)CCN(C(=O)CO)C5)nc32)CC1` (centres undefined) [AMG-925], the drug sensitivity score [1] was 1.1 DSS, the drug sensitivity score [3] was 0 DSS and the drug sensitivity score [2] was 0 DSS.
Work on `COCC1(CO)C(=O)C2CCN1CC2` (centres undefined) [APR-246] yielded a drug sensitivity score [1] of 0 DSS, a drug sensitivity score [3] of 1.1 DSS and a drug sensitivity score [2] of 2 DSS.
For `CC(C)[C@H](C(=O)Nc1ccc(C(=O)NO)cc1)c1ccccc1` [AR-42], the drug sensitivity score [1] was 19.6 DSS, the drug sensitivity score [3] was 12.9 DSS and the drug sensitivity score [2] was 10.9 DSS.
Work on `CNC(=O)c1ccc(N2C(=S)N(c3cnc(C#N)c(C(F)(F)F)c3)C(=O)C23CCC3)cc1F` [ARN 509] yielded a drug sensitivity score [1] of 0.7 DSS, a drug sensitivity score [3] of 0 DSS and a drug sensitivity score [2] of 0.9 DSS.
With `COc1cc(N2CCC(N3CCN(C)CC3)CC2)ccc1Nc1ncnc(Nc2ccccc2S(=O)(=O)C(C)C)n1` [ASP3026] the drug sensitivity score [1] was 4.6 DSS, the drug sensitivity score [3] was 5 DSS and the drug sensitivity score [2] was 8 DSS.
In the case of `O=C(NC1CCNCC1)c1n[nH]cc1NC(=O)c1c(Cl)cccc1Cl` [AT7519], the drug sensitivity score [1] is reported as 10.7 DSS, the drug sensitivity score [3] is reported as 9.1 DSS and the drug sensitivity score [2] is reported as 14.4 DSS.

Source: the supplement of paper PMC9265050, “Inhibition of RNA Binding in SND1 Increases the Levels of miR-1-3p and Sensitizes Cancer Cells to Navitoclax” (Cancers, 2022)
